Data reported in PubChem BioAssay (NCI).
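Results reflect a 48-hour exposure of cells in 96-well plates to compound at five concentrations. GI50: concentration for 50% inhibition of growth. TGI: total growth inhibition.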

How the values were obtained:
Assay in all cases: NCI-60 cell line screen, 48 h
[1] = system: SNB-19 CNS
[2] = system: OVCAR-5 ovarian
[3] = system: U251 CNS
[4] = system: NCI/ADR-RES ovarian
[5] = system: HS 578T breast
[6] = system: TK-10 renal
[7] = system: SK-MEL-2 melanoma
[8] = system: CAKI-1 renal
[9] = system: SK-OV-3 ovarian
[10] = system: SW-620 colon
[11] = system: UACC-62 melanoma
[12] = system: OVCAR-8 ovarian
[13] = system: NCI-H460 lung
[14] = system: MDA-MB-231 breast
[15] = system: RPMI-8226 leukemia
[16] = system: HCC-2998 colon
[17] = system: SR leukemia
[18] = system: T-47D breast
[19] = system: NCI-H522 lung
[20] = system: CCRF-CEM leukemia
[21] = system: MCF7 breast
[22] = system: HCT-15 colon
[23] = system: RXF 393 renal
[24] = system: SF-295 CNS
[25] = system: EKVX NSCLC
[26] = system: BT-549 breast
[27] = system: SK-MEL-5 melanoma
[28] = system: MDA-MB-435
[29] = system: ACHN renal
[30] = system: OVCAR-4 ovarian
[31] = system: DU-145 prostate
[32] = system: SF-539 CNS
[33] = system: LOX IMVI melanoma
[34] = system: MOLT-4 leukemia
[35] = system: UACC-257 melanoma
[36] = system: IGROV1 ovarian
[37] = system: HOP-62 NSCLC
[38] = system: PC-3 prostate
[39] = system: NCI-H23 lung
[40] = system: K-562 leukemia
[41] = system: UO-31 renal
[42] = system: 786-0 renal
[43] = system: SF-268 CNS
[44] = system: SK-MEL-28 melanoma
[45] = system: SN12C renal
[46] = system: HCT-116 colon
[47] = system: A549 NSCLC
[48] = system: KM12 colon
[49] = system: HOP-92 NSCLC
[50] = system: COLO 205 colon
[51] = system: NCI-H226 lung
[52] = system: A498 renal
[53] = system: HL-60(TB) leukemia
[54] = system: MALME-3M melanoma
[55] = system: HT29 colon
[56] = system: SNB-75 CNS
[57] = system: OVCAR-3 ovarian
[58] = system: M14 melanoma

With `N#CC(=C1SCS1)[N+](=O)[O-]` the GI50 [1] was 9.36 µM, the TGI [1] was 83.5 µM and the GI50 [2] was 4.12 µM. For the same molecule, the TGI [2] was 19.9 µM, the GI50 [3] was 2.37 µM and the TGI [3] was 10.8 µM. The GI50 [4] was 3.05 µM, the TGI [4] was 20 µM and the GI50 [5] was 3.67 µM. It also gave a TGI [5] of 41.2 µM, a GI50 [6] of 3.68 µM and a TGI [6] of 13.4 µM. The GI50 [7] was 6.7 µM, the TGI [7] was 20.7 µM and the GI50 [8] was 2.14 µM. It also gave a TGI [8] of 16.2 µM, a GI50 [9] of 5.35 µM and a TGI [9] of 43.3 µM. For the same molecule, the GI50 [10] was 0.454 µM, the TGI [10] was 6.47 µM and the GI50 [11] was 2.29 µM. It also gave a TGI [11] of 13.6 µM, a GI50 [12] of 3.16 µM and a TGI [12] of 13.8 µM. It also gave a GI50 [13] of 2.99 µM, a TGI [13] of 10.1 µM and a GI50 [14] of 4.94 µM. For the same molecule, the TGI [14] was 20.4 µM, the GI50 [15] was 0.678 µM and the TGI [15] was 4.06 µM. The GI50 [16] was 4.26 µM, the TGI [16] was 16.6 µM and the GI50 [17] was 0.568 µM. For the same molecule, the TGI [17] was 4.31 µM, the GI50 [18] was 0.724 µM and the TGI [18] was 20.9 µM. For the same molecule, the GI50 [19] was 0.687 µM, the TGI [19] was 2.08 µM and the GI50 [20] was 0.376 µM. It also gave a TGI [20] of 5.18 µM, a GI50 [21] of 1.31 µM and a TGI [21] of 17.8 µM. The GI50 [22] was 0.853 µM, the TGI [22] was 9.56 µM and the GI50 [23] was 1.63 µM. For the same molecule, the TGI [23] was 3.83 µM, the GI50 [24] was 4.82 µM and the TGI [24] was 44.4 µM. It also gave a GI50 [25] of 12.4 µM, a TGI [25] of 31.1 µM and a GI50 [26] of 9.3 µM. For the same molecule, the TGI [26] was 23 µM, the GI50 [27] was 3.25 µM and the TGI [27] was 13.8 µM. It also gave a GI50 [28] of 1.48 µM, a TGI [28] of 16.9 µM and a GI50 [29] of 2.4 µM. For the same molecule, the TGI [29] was 13.2 µM, the GI50 [30] was 4.79 µM and the TGI [30] was 19 µM. The GI50 [31] was 2.56 µM, the TGI [31] was 10.1 µM and the GI50 [32] was 2.23 µM. It also gave a TGI [32] of 12.7 µM, a GI50 [33] of 0.567 µM and a TGI [33] of 14.7 µM. It also gave a GI50 [34] of 0.639 µM, a TGI [34] of 6.5 µM and a GI50 [35] of 1.09 µM. The TGI [35] was 7.06 µM, the GI50 [36] was 3.55 µM and the TGI [36] was 71.1 µM. It also gave a GI50 [37] of 4.9 µM, a TGI [37] of 21.1 µM and a GI50 [38] of 5.11 µM. The TGI [38] was 20.7 µM, the GI50 [39] was 7.96 µM and the TGI [39] was 34.8 µM. For the same molecule, the GI50 [40] was 0.371 µM, the TGI [40] was greater than 100 µM and the GI50 [41] was 6.04 µM. It also gave a TGI [41] of 24.3 µM, a GI50 [42] of 3.12 µM and a TGI [42] of 14 µM. The GI50 [43] was 3.64 µM, the TGI [43] was 20.1 µM and the GI50 [44] was 3.59 µM. The TGI [44] was 15.1 µM, the GI50 [45] was 4.35 µM and the TGI [45] was 18.4 µM. The GI50 [46] was 0.346 µM, the TGI [46] was 10.3 µM and the GI50 [47] was 4 µM. For the same molecule, the TGI [47] was 40.6 µM, the GI50 [48] was 3.29 µM and the TGI [48] was 14.2 µM. For the same molecule, the GI50 [49] was 0.365 µM, the TGI [49] was 10.4 µM and the GI50 [50] was 1.41 µM. For the same molecule, the TGI [50] was 3.92 µM, the GI50 [51] was 16.7 µM and the TGI [51] was 62.8 µM. For the same molecule, the GI50 [52] was 2.31 µM, the TGI [52] was 12.7 µM and the GI50 [53] was 0.618 µM. It also gave a TGI [53] of 6.36 µM, a GI50 [54] of 3.21 µM and a TGI [54] of 18.1 µM. For the same molecule, the GI50 [55] was 0.336 µM, the TGI [55] was 11.2 µM and the GI50 [56] was 2.44 µM. For the same molecule, the TGI [56] was 8.76 µM, the GI50 [57] was 1.13 µM and the TGI [57] was 3.92 µM.
Work on `COc1cccc(/C=C/C(=O)c2cc3c(N)c(C(=O)Nc4ccccc4C)sc3nc2C)c1` yielded a GI50 [1] of 1.07 µM, a TGI [1] of 2.68 µM and a GI50 [2] of 1.21 µM. It also gave a TGI [2] of 3.76 µM, a GI50 [3] of 0.892 µM and a TGI [3] of 1.81 µM. The GI50 [4] was 1.51 µM, the TGI [4] was greater than 50 µM and the GI50 [5] was 1.63 µM. The TGI [5] was greater than 50 µM, the GI50 [6] was 1.55 µM and the TGI [6] was 6.21 µM. The GI50 [7] was 1.7 µM, the TGI [7] was 8.18 µM and the GI50 [8] was 1.66 µM. The TGI [8] was 5.75 µM, the GI50 [9] was 5.03 µM and the TGI [9] was 38.8 µM. For the same molecule, the GI50 [10] was 1.01 µM, the TGI [10] was 2.32 µM and the GI50 [11] was 0.905 µM. The TGI [11] was 2 µM, the GI50 [12] was 1.26 µM and the TGI [12] was greater than 50 µM. It also gave a GI50 [13] of 1.1 µM, a TGI [13] of 2.53 µM and a GI50 [14] of 1.46 µM. For the same molecule, the TGI [14] was 4.08 µM, the GI50 [15] was 1.09 µM and the TGI [15] was 2.92 µM. For the same molecule, the GI50 [16] was 0.955 µM, the TGI [16] was 1.87 µM and the GI50 [17] was 1.09 µM. For the same molecule, the TGI [17] was 4.2 µM, the GI50 [18] was 1.15 µM and the TGI [18] was 3.63 µM. The GI50 [19] was 1.07 µM, the TGI [19] was 3.38 µM and the GI50 [20] was 1.33 µM. It also gave a TGI [20] greater than 50 µM, a GI50 [21] of 1.29 µM and a TGI [21] of 6.1 µM. For the same molecule, the GI50 [22] was 0.854 µM, the TGI [22] was 1.87 µM and the GI50 [23] was 0.768 µM. For the same molecule, the TGI [23] was 1.53 µM, the GI50 [24] was 2.26 µM and the TGI [24] was 15.9 µM. It also gave a GI50 [25] of 1.84 µM, a TGI [25] of 10.8 µM and a GI50 [26] of 1.5 µM. The TGI [26] was 5.83 µM, the GI50 [27] was 1.44 µM and the TGI [27] was 4.56 µM. It also gave a GI50 [28] of 1.07 µM, a TGI [28] of 2.77 µM and a GI50 [29] of 0.894 µM. For the same molecule, the TGI [29] was 1.86 µM, the GI50 [30] was 2.38 µM and the TGI [30] was 11.2 µM. It also gave a GI50 [31] of 1.32 µM, a TGI [31] of 4.08 µM and a GI50 [32] of 1.13 µM. For the same molecule, the TGI [32] was 2.91 µM, the GI50 [33] was 0.875 µM and the TGI [33] was 1.59 µM. For the same molecule, the GI50 [34] was 1.49 µM, the TGI [34] was 27.8 µM and the GI50 [35] was 1.21 µM. The TGI [35] was 3.75 µM, the GI50 [36] was 1.03 µM and the TGI [36] was 2.44 µM. For the same molecule, the GI50 [37] was 1.12 µM, the TGI [37] was 2.57 µM and the GI50 [38] was 1.69 µM. For the same molecule, the TGI [38] was 8.3 µM, the GI50 [39] was 1.76 µM and the TGI [39] was 8.93 µM. It also gave a GI50 [40] of 1.42 µM, a TGI [40] greater than 50 µM and a GI50 [41] of 0.863 µM. It also gave a TGI [41] of 1.72 µM, a GI50 [42] of 0.912 µM and a TGI [42] of 1.93 µM. It also gave a GI50 [43] of 1.78 µM, a TGI [43] of 7.66 µM and a GI50 [45] of 0.953 µM. It also gave a TGI [45] of 2.13 µM, a GI50 [46] of 0.822 µM and a TGI [46] of 1.5 µM. It also gave a GI50 [47] of 1.53 µM, a TGI [47] of 6.29 µM and a GI50 [48] of 1.27 µM. For the same molecule, the TGI [48] was 3.62 µM, the GI50 [49] was 0.823 µM and the TGI [49] was 2.72 µM. It also gave a GI50 [50] of 2.02 µM, a TGI [50] of 7.61 µM and a GI50 [58] of 1.59 µM. For the same molecule, the TGI [58] was 6.42 µM, the GI50 [51] was 1.07 µM and the TGI [51] was 2.92 µM. It also gave a GI50 [52] of 0.989 µM, a TGI [52] of 4.4 µM and a GI50 [53] of 1.1 µM. The TGI [53] was 2.63 µM, the GI50 [54] was 2.29 µM and the TGI [54] was 12.6 µM. The GI50 [55] was 1.11 µM, the TGI [55] was 2.58 µM and the GI50 [56] was 1.05 µM. For the same molecule, the TGI [56] was 3.15 µM, the GI50 [57] was 1.13 µM and the TGI [57] was 2.44 µM.
